# In US20220402916A1, “SMALL MOLECULE INHIBITORS OF KRAS G12C MUTANT” (Merck Sharp & Dohme Corp., priority 2019, published 2022):
# Read-outs that look alike come from different tables or passages of the source.
# Columns and labels:
# [1] = target: T1, Biotinylated KRAS G12C protein (Homo sapiens, UniProt P01116, C118S/C51S/C80L/G12C); assay: SOS-catalyzed nucleotide exchange assay; format: biochemical; conditions: apparent potency; preincubation time of 60 minutes prior to addition of SOS
# T1 construct: 183 amino acids; biotin on K10
# T1 sequence (P01116 with tags, fused parts or gaps isoform P01116-2 G12C/C51S/C80L/C118S): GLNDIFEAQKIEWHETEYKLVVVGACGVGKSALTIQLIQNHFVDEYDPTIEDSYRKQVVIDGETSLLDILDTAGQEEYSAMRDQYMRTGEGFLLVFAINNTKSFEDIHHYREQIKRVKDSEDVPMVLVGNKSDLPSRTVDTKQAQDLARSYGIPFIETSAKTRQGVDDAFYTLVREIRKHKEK
# NCI-H358 cells = assay: Cellular phospho-ERK assay; format: cell-based; conditions: NCI-H358 cells, 2 hour incubation, ratio of p-Erk vs total Erk, read-out: IC50
# Description: NCI-H358 cells (ATCC® CRL-5807™) were cultured in T150 flask in growth medium (RPMI medium 1640-GlutaMAX™-1 (ThermoFisher Scientific 61870) containing 10% fetal bovine serum (ThermoFisher Scientific 10091148)). The cells were harvested in growth medium after TrypLE (ThermoFisher scientific 12604021) digestion and were seeded in 384-well collagen coated cell culture plate (Corning 356702) at a density of 15,000 cells/well, and incubated at 37° C., 5% CO2 overnight. The compound dose-response titrations were prepared and appropriate amounts of compounds were dispensed in 384-well intermediate plate using Echo 550 liquid handler. RPMI medium 1640-GlutaMAX™-I were added to the intermediate plate and transferred to 384-well cell culture plate, which was incubated at 37° C., 5% CO2 for 2 hours. After removal of medium from the plate, cells were lysed in lysis buffer from Alpha SureFire® Ultra™ Multiplex p-Erk and total Erk assay kit (PerkinElmer MPSU-PTERK) containing Halt™ Protease and Phosphotase inhibitor cocktail (ThermoFisher Scientific 78446) at room temperature with constant shaking at 300 rpm for 30 minutes. The cell lysates were then transferred to OptiPlate-384 plate (PerkinElmer 6005620) and the phosphorylation of Erk and total Erk levels were detected by Alpha SureFire Ultra Multiplex p-Erk kit (PerkinElmer MPSU-PTERK) following the manufacturer's protocol. Assay plates were read on an EnVision Multimode Plate Reader (PerkinElmer) and the ratio of p-Erk vs total Erk in each well was used as the final readout. Dose response curves were analyzed using a 4-parameter logistic model to calculate IC50 values using spotfire software.
SMILES,IC50 [1] [nM],"IC50 (NCI-H358 cells; Homo sapiens, NCI-H358, 2 h) [nM]",IC50 (NCI-H358 cells) [nM]
"C=CC(=O)N1CCN(c2cc(C(=O)N[C@H](C)CN)nc3c2CCN(c2cccc4ccccc24)C3)C[C@@H]1CC#N [Compound 61, 4-((S)-4-acryloyl-3-(cyanomethyl)piperazin-1-yl)-N—((R)-1-aminopropan-2-yl)-7-(naphthalen-1-yl)-5,6,7,8-tetrahydro-1,7-naphthyridine-2-carboxamide]",13,1240,–
"C=CC(=O)N1CCN(c2cc(C(=O)NCCN(C)C)nc3c2CCN(c2cccc4cccc(C)c24)C3)C[C@@H]1CC#N [Compound 64, (S)-4-(4-acryloyl-3-(cyanomethyl)piperazin-1-yl)-N-(2-(dimethylamino)ethyl)-7-(8-methylnaphthalen-1-yl)-5,6,7,8-tetrahydro-1,7-naphthyridine-2-carboxamide]",2.7,106,–
"C=CC(=O)N1CCN(c2cc(C(=O)NC[C@H]3CCCN3)nc3c2CCN(c2cccc4cccc(C)c24)C3)C[C@@H]1CC#N [Compound 98, 4-((S)-4-acryloyl-3-(cyanomethyl)piperazin-1-yl)-7-(8-methylnaphthalen-1-yl)-N-(((R)-pyrrolidin-2-yl)methyl)-5,6,7,8-tetrahydro-1,7-naphthyridine-2-carboxamide]",6.2,1040,–
"C=CC(=O)N1CCN(c2cc(C(=O)N[C@@H](C)CN)nc3c2CCN(c2cccc4ccccc24)C3)C[C@@H]1CC#N [Compound 62, 4-((S)-4-acryloyl-3-(cyanomethyl)piperazin-1-yl)-N-((S)-1-aminopropan-2-yl)-7-(naphthalen-1-yl)-5,6,7,8-tetrahydro-1,7-naphthyridine-2-carboxamide]",51,2410,–
"C=CC(=O)N1CCN(c2cc(C(=O)N[C@H](C)CN(C)C)nc3c2CCN(c2c(Cl)c(C)cc4[nH]ncc24)C3)C[C@@H]1CC#N [Compound 84, 4-((S)-4-acryloyl-3-(cyanomethyl)piperazin-1-yl)-7-(5-chloro-6-methyl-1H-indazol-4-yl)-N—((R)-1-(dimethylamino)propan-2-yl)-5,6,7,8-tetrahydro-1,7-naphthyridine-2-carboxamide]",0.9,96,–
"C=CC(=O)N1CCN(c2cc(C(=O)NC[C@@H]3CC(F)(F)CN3)nc3c2CCN(c2cccc4cccc(C)c24)C3)C[C@@H]1CC#N [Compound 80, 4-((S)-4-acryloyl-3-(cyanomethyl)piperazin-1-yl)-N-(((S)-4,4-difluoropyrrolidin-2-yl)methyl)-7-(8-methylnaphthalen-1-yl)-5,6,7,8-tetrahydro-1,7-naphthyridine-2-carboxamide]",91,6360,–
"C=CC(=O)N1CCN(c2cc(C(=O)Nc3ccccc3N3CCNCC3)nc3c2CCN(c2cccc4cccc(C)c24)C3)C[C@@H]1CC#N [Compound 93, (S)-4-(4-acryloyl-3-(cyanomethyl)piperazin-1-yl)-7-(8-methylnaphthalen-1-yl)-N-(2-(piperazin-1-yl)phenyl)-5,6,7,8-tetrahydro-1,7-naphthyridine-2-carboxamide]",1840,24400,–
"C=CC(=O)N1CCN(c2cc(C(=O)NC(CN)CN)nc3c2CCN(c2cccc4cccc(C)c24)C3)C[C@@H]1CC#N [Compound 87, (S)-4-(4-acryloyl-3-(cyanomethyl)piperazin-1-yl)-N-(1,3-diaminopropan-2-yl)-7-(8-methylnaphthalen-1-yl)-5,6,7,8-tetrahydro-1,7-naphthyridine-2-carboxamide]",15,26700,–
"C=CC(=O)N1CCN(c2cc(C(=O)N[C@H](C)CN3CC(F)(F)C3)nc3c2CCN(c2cccc4cccc(C)c24)C3)C[C@@H]1CC#N [Compound 68, 4-((S)-4-acryloyl-3-(cyanomethyl)piperazin-1-yl)-N—((R)-1-(3,3-difluoroazetidin-1-yl)propan-2-yl)-7-(8-methylnaphthalen-1-yl)-5,6,7,8-tetrahydro-1,7-naphthyridine-2-carboxamide]",29,2890,–
"C=CC(=O)N1CCN(c2cc(C(=O)NCCN(C)C)nc3c2CCN(c2cccc4ccccc24)C3)C[C@@H]1CC#N [Compound 60, (S)-4-(4-acryloyl-3-(cyanomethyl)piperazin-1-yl)-N-(2-(dimethylamino)ethyl)-7-(naphthalen-1-yl)-5,6,7,8-tetrahydro-1,7-naphthyridine-2-carboxamide]",8.8,375,–
"C=CC(=O)N1CCN(c2cc(C(=O)NCC[C@H]3CCCN3)nc3c2CCN(c2cccc4cccc(C)c24)C3)C[C@@H]1CC#N [Compound 104, 4-((S)-4-acryloyl-3-(cyanomethyl)piperazin-1-yl)-7-(8-methylnaphthalen-1-yl)-N-(2-((R)-pyrrolidin-2-yl)ethyl)-5,6,7,8-tetrahydro-1,7-naphthyridine-2-carboxamide]",12,4900,–

# Now from value to molecule:
IC50 [1] [nM],"IC50 (NCI-H358 cells; Homo sapiens, NCI-H358, 2 h) [nM]",IC50 (NCI-H358 cells) [nM],SMILES
17,4890,–,"C=CC(=O)N1CCN(c2cc(C(=O)NCCC3CCCCN3)nc3c2CCN(c2cccc4cccc(C)c24)C3)C[C@@H]1CC#N (mixture of isomers) [Compound 105, 4-((S)-4-acryloyl-3-(cyanomethyl)piperazin-1-yl)-7-(8-methylnaphthalen-1-yl)-N-(2-((R)-piperidin-2-yl)ethyl)-5,6,7,8-tetrahydro-1,7-naphthyridine-2-carboxamide, as a mixture with 4-((S)-4-acryloyl-3-(cyanomethyl)piperazin-1-yl)-7-(8-methylnaphthalen-1-yl)-N-(2-((S)-piperidin-2-yl)ethyl)-5,6,7,8-tetrahydro-1,7-naphthyridine-2-carboxamide]"
7.2,–,68,"C=CC(=O)N1CCN(c2cc(C(=O)NC(C)CN3CCC(C)(O)C3)nc3c2CCN(c2cccc4cccc(C)c24)C3)C[C@@H]1CC#N (single isomer, unassigned) [Compound 75, 4-((S)-4-acryloyl-3-(cyanomethyl)piperazin-1-yl)-N-((R or S)-1-((S or R)-3-hydroxy-3-methylpyrrolidin-1-yl)propan-2-yl)-7-(8-methylnaphthalen-1-yl)-5,6,7,8-tetrahydro-1,7-naphthyridine-2-carboxamide]"
66,5940,–,"C=CC(=O)N1CCN(c2cc(C(=O)N[C@H](C)CN(C)C)nc3c2CCN(c2cccc4cccc(C)c24)C3)CC1 [Compound 12, (R)-4-(4-acryloylpiperazin-1-yl)-N-(1-(dimethylamino)propan-2-yl)-7-(8-methylnaphthalen-1-yl)-5,6,7,8-tetrahydro-1,7-naphthyridine-2-carboxamide]"
74,5640,–,"C=CC(=O)N1CCN(c2cc(C(=O)NC3(CN4CCCCC4)CC3)nc3c2CCN(c2cccc4cccc(C)c24)C3)CC1 [Compound 25, 4-(4-acryloylpiperazin-1-yl)-7-(8-methylnaphthalen-1-yl)-N-(1-(piperidin-1-ylmethyl)cyclopropyl)-5,6,7,8-tetrahydro-1,7-naphthyridine-2-carboxamide]"
529,–,25400,"C=CC(=O)N1CCN(c2cc(C(=O)NC(C)CN3CCC(F)(F)C3)nc3c2CCN(c2cccc4cccc(C)c24)C3)C[C@@H]1CC#N (single isomer, unassigned) [Compound 72, 4-((S)-4-acryloyl-3-(cyanomethyl)piperazin-1-yl)-N—((S or R)-1-(3,3-difluoropyrrolidin-1-yl)propan-2-yl)-7-(8-methylnaphthalen-1-yl)-5,6,7,8-tetrahydro-1,7-naphthyridine-2-carboxamide]"
9.7,–,257,"C=CC(=O)N1CCN(c2cc(C(=O)NC(C)CN3CCC(C)(O)C3)nc3c2CCN(c2cccc4cccc(C)c24)C3)C[C@@H]1CC#N (single isomer, unassigned) [Compound 73, 4-((S)-4-acryloyl-3-(cyanomethyl)piperazin-1-yl)-N—((R or S)-1-((R or S)-3-hydroxy-3-methylpyrrolidin-1-yl)propan-2-yl)-7-(8-methylnaphthalen-1-yl)-5,6,7,8-tetrahydro-1,7-naphthyridine-2-carboxamide]"
6.2,–,207,"C=CC(=O)N1CCN(c2cc(C(=O)NC(C)CN3CCC(C)(O)C3)nc3c2CCN(c2cccc4cccc(C)c24)C3)C[C@@H]1CC#N (single isomer, unassigned) [Compound 76, 4-((S)-4-acryloyl-3-(cyanomethyl)piperazin-1-yl)-N-((S or R)-1-((S or R)-3-hydroxy-3-methylpyrrolidin-1-yl)propan-2-yl)-7-(8-methylnaphthalen-1-yl)-5,6,7,8-tetrahydro-1,7-naphthyridine-2-carboxamide]"
